Data as given in patent US12729381B2, “Methods and compositions for inactivating interleukin-2-inducible t-cell kinase (ITK)” (priority 2020, dated 2026).
Non-standard residues stand in square brackets, D forms with d. No end group written: not given here. *: point of attachment. FITC = O=C1OC2(c3ccc(O)cc3Oc3cc(O)ccc32)c2ccc(NC(=S)*)cc21; pY = N[C@@H](Cc1ccc(OP(=O)(O)O)cc1)C(=O)O

Tests used:
[1] = system: T cells from GVHD patient blood samples; experiment: T cells from GVHD patient blood samples treated with SLP76pTYR; type: cell-based, human
[2] = system: GVHD and B-ALL-luc tumor cells; experiment: Allo-HSCT GVHD/GVL model with donor T cells transduced with SLP76pTYR-pCherry virus; type: in vivo, BALB/c mice; conditions: murine allo-HSCT major mismatch model
Protocol: GVHD and GVL studies: Recipient BALB/c mice (MHC haplotype d) as recipients were lethally irradiated with 800 cGy total in two split doses of 400cGy. Bone marrow cells were harvested from mouse legs, and total bone marrow cells were incubated with CD90.2 beads, using 100 ul of beads per mouse according to manufacturer protocols. NK cells were depleted and by DX5 beads, and CD122+ cells with anti PE beads. Recipient mice were injected intravenously with 10×10^6 T cell-depleted bone marrow (TCDBM) cells, with or without donor T cells, either 1×10^6 or 2×10^6 FACS-sorted CD8^+, CD4^+ T cells, or CD8^+ and CD4^+ cells mixed at a 1:1 ratio from WT or SLP76 Y145FKI mice. For GVL experiments, primary B cell acute lymphoblastic leukemia (B-ALL, syngeneic to BALB/c and allogeneic to C57BI/6) blasts were transduced with luciferase as described previously (Cheng et al., 2016), and 2×10^5 luciferase-expressing B-ALL-luc cells were used per recipient mouse unless otherwise specified. […] The bioluminescence data were analyzed and quantified with Living Image Software (Xenogen) and Igor Pro (Wave Metrics, Lake Oswego, OR). Recipient animals were evaluated for clinical score 2-3 times per week by a scoring system that sums changes in 6 clinical parameters: (1) weight loss, (2) posture, (3) activity, (4) fur texture, (5) diarrhea and (6) skin integrity (Cooke et al., 1996). […]

“FITC Dye ^132NEEEEAPVEDDADpYEPPPSNDEEA^155-TAT ({FITC}-NEEEEAPVEDDAD[pY]EPPPSNDEEAGRKKRRQRRRPQ) [SLP76pTYR]” was tested, and the IFN-γ production [1] was “significantly reducing IFN-γ and TNF-αproduction”, the TNF-α production [1] was “significantly reducing IFN-γ and TNF-αproduction” and the “development of FoxP3+ regulatory T cells” value [1] was “enhances the development of FoxP3^+ regulatory T cells”. The “GVHD and GVL outcome (summary statement)” value [2] was “tumor clearance without inducing GVHD” and the “GVHD and GVL outcome (summary statement)” value ([2]; listed as SLP76145pTYR) was “significantly reduced GVHD pathophysiology but maintained GVL function”.
